Experimental data as given in patent publication US6489342B2, “Aryloxy piperidinyl indoles for treating depression” (Wyeth, priority 2000, dated 2002).
Counter-ions that a name gives are not always drawn.

What was measured:
5-HT1A = biological target: T1, 5-HT1A (Homo sapiens, UniProt P08908); assay: 5-HT1A receptor binding, [3H]DPAT; conditions: radioligand [3H]DPAT
T1 sequence (P08908 1-422): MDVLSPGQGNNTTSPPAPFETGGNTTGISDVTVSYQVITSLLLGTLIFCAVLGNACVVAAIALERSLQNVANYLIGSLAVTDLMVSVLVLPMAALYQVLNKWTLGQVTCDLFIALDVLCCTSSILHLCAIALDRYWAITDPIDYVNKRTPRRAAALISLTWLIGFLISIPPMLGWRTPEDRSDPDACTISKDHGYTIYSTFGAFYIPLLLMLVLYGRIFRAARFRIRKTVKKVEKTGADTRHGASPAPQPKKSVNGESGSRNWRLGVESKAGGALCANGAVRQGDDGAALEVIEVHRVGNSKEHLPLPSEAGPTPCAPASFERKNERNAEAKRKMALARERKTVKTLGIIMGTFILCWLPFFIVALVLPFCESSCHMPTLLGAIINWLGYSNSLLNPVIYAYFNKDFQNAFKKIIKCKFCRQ

melting point | Structure (SMILES) | other results
– | Fc1ccc2[nH]cc(CC3CCN(CCOc4cccc5[nH]ccc45)CC3)c2c1 [Example 1, 5-Fluoro-3-{1-[2-(1H-indol-4-yloxy)ethyl]-piperidin-4-ylmethyl}-1H-indole] | Ki (5-HT1A): 47 nM
130 to 132 °C | CC(CN1CCC(Cc2c[nH]c3ccc(F)cc23)CC1)Oc1cccc2[nH]ccc12 (stereo not shown) (as salt: hydrochloride) [Example 2, 5-Fluoro-3-[[1-[2-(1H-indol-4-yloxy)propyl]-4-piperidinyl]methyl]-1H-indole] | –
215 °C (dec.) | Fc1ccc2[nH]cc(CC3CCN(CCOc4cccc5[nH]ccc45)CC3)c2c1 (as salt: hydrochloride) (hydrate or solvate) [Example 1, 5-Fluoro-3-{1-[2-(1H-indol-4-yloxy)ethyl]-piperidin-4-ylmethyl}-1H-indole] | –
– | CC(CN1CCC(Cc2c[nH]c3ccc(F)cc23)CC1)Oc1cccc2[nH]ccc12 (stereo not shown) [Example 2, 5-Fluoro-3-[[1-[2-(1H-indol-4-yloxy)propyl]-4-piperidinyl]methyl]-1H-indole] | 5-HT1A [3H]DPAT, percent at 100 nM (5-HT1A; @ 100 nM): 14% @
